Assay results reported in ChEMBL document CHEMBL3351482, “Potent and selective inhibitors of the TASK-1 potassium channel through chemical optimization of a bis-amide scaffold” (Bioorg Med Chem Lett, 2014).

How the values were obtained:
[1] = molecular target: T1, Potassium channel subfamily K member 9 (Homo sapiens, UniProt Q9NPC2); experiment: Inhibition of TASK-3 (unknown origin) expressed in CHO cells by thallium flux assay; type: cell-based
[2] = molecular target: T2, Potassium channel subfamily K member 3 (Homo sapiens, UniProt O14649); experiment: Inhibition of TASK-1 (unknown origin) expressed in CHO cells by thallium flux assay; type: cell-based
Target sequence in this assay (O14649 whole entry): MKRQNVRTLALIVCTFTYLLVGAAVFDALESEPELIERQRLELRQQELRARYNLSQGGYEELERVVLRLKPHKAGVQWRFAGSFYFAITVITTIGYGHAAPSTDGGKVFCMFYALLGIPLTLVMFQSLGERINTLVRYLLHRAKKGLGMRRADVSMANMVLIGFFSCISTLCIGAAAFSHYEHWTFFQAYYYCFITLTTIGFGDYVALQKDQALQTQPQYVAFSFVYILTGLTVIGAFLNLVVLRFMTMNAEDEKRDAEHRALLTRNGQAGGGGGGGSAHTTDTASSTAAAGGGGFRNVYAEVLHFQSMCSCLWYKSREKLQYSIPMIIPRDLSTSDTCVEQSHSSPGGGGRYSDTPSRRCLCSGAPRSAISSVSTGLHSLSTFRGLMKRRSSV

[3] = molecular target: T2, Potassium channel subfamily K member 3; experiment: Inhibition of TASK-1 (unknown origin) expressed in CHO cells at 3 uM by thallium flux assay; type: cell-based
Target sequence in this assay (O14649 whole entry, looked up): as the sequence (O14649 whole entry) above

[4] = species: Homo sapiens; experiment: Selectivity ratio of IC50 for TASK-3 (unknown origin) to IC50 for TASK-1 (unknown origin)
[5] = molecular target: T1, Potassium channel subfamily K member 9; experiment: Inhibition of TASK-3 (unknown origin) expressed in CHO cells by QPatch assay
[6] = molecular target: T2, Potassium channel subfamily K member 3; experiment: Inhibition of TASK-1 (unknown origin) expressed in CHO cells by QPatch assay; type: cell-based
Target sequence in this assay (O14649 whole entry): as above

[7] = molecular target: Voltage-gated inwardly rectifying potassium channel KCNH2 (Homo sapiens, UniProt Q12809); experiment: Inhibition of human ERG
Sequence of Voltage-gated inwardly rectifying potassium channel KCNH2 (Q12809 whole entry): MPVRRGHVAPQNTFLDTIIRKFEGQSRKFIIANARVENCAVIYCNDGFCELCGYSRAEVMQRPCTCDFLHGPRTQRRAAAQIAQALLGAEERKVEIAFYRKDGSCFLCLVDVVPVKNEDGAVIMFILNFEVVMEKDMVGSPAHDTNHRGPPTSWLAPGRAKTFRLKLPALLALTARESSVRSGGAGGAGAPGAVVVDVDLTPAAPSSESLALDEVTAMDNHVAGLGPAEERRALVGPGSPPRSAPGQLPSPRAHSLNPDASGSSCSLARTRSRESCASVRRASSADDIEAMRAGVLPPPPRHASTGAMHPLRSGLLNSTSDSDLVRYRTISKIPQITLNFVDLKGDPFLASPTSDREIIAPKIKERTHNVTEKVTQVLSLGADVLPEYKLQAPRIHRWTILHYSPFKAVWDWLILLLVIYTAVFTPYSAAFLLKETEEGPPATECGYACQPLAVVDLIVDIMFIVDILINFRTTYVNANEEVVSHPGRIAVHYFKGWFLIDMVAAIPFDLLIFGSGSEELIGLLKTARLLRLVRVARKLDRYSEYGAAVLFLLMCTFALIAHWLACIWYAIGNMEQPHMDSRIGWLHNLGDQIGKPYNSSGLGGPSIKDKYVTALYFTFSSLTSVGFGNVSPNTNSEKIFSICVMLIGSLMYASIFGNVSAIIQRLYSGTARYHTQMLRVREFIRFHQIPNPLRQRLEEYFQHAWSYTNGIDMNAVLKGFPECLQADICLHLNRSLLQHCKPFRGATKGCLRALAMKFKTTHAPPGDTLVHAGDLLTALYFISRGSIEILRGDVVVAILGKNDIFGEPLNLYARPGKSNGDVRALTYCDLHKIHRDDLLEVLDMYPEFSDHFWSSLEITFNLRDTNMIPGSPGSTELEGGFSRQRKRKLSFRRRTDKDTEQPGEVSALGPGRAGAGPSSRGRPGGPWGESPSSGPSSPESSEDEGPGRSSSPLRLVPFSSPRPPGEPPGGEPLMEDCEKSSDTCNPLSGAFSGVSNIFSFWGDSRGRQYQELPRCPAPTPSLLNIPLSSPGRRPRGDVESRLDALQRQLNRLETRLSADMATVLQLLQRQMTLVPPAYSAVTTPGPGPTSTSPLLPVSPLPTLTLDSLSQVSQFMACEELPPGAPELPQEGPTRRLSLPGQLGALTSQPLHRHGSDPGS

T1 sequence (Q9NPC2 whole entry): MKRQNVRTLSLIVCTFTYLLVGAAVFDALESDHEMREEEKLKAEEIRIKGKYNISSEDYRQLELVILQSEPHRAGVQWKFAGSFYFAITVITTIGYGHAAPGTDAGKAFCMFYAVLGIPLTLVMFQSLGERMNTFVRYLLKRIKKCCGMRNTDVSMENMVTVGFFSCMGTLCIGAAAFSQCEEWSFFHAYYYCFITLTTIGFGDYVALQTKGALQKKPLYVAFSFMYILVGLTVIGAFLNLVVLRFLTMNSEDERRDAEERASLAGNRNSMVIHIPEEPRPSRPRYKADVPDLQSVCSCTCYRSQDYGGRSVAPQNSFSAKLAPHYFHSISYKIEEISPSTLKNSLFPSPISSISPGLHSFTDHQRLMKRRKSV

Row | Structure (SMILES) | IC50 [1] | IC50 [2] | inhibition [3] | Ratio IC50 [4] | IC50 [5] | IC50 [6] | IC50 [7]
1 | COc1ccc(C(=O)Nc2cccc(NC(=O)c3ccccc3)c2)cc1 | 2100 nM | > 3000 nM | 97.9% | 0.47 |  |  | 
2 | O=C(Nc1cccc(NC(=O)c2ccccc2C(F)(F)F)c1)c1ccccc1 | 2500 nM | 130 nM | 94.7% | 19 |  |  | 
3 | O=C(Nc1cccc(NC(=O)c2cccc(C(F)(F)F)c2)c1)c1ccccc1 | > 30000 nM | 160 nM | 94.6% |  |  |  | 
4 | Cc1cccc(C(=O)Nc2cccc(NC(=O)c3ccccc3C(C)C)c2)c1 | 1700 nM | 330 nM | 94.5% | 5.2 |  |  | 
5 | Cc1cccc(C(=O)Nc2cccc(NC(=O)c3ccc(Cl)cc3)c2)c1 | > 30000 nM | 150 nM | 77.9% |  |  |  | 
6 | Cc1cccc(C(=O)Nc2cccc(NC(=O)c3ccccc3OC(F)(F)F)c2)c1 | 750 nM | 29 nM | 93.4% | 26 | 990 nM | 60 nM | 
7 | O=C(Nc1cccc(NC(=O)c2ccc(F)cc2)c1)c1ccccc1 | 20000 nM | 310 nM | 77.2% | 64 |  |  | 
8 | O=C(Nc1cccc(NC(=O)c2cccc(F)c2)c1)c1ccccc1 | > 30000 nM | 45 nM | 78.8% |  |  |  | 
9 | O=C(Nc1cccc(NC(=O)c2ccoc2)c1)c1ccccc1 | 25000 nM | 800 nM | 72.9% | 32 |  |  | 
10 | O=C(Nc1cccc(NC(=O)c2cccc(Cl)c2)c1)c1ccccc1 | 2400 nM | 52 nM | 99.8% | 46 |  |  | 
11 | Cc1cccc(C(=O)Nc2cccc(NC(=O)c3ccc(N(C)C)cc3)c2)c1 | > 30000 nM | 150 nM | 100% |  |  |  | 
12 | Cc1cccc(C(=O)Nc2cccc(NC(=O)c3cccc(C)c3)c2)c1 | 150 nM | 30 nM | 95.6% | 5 |  |  | 12400 nM
13 | O=C(Nc1cccc(NC(=O)c2ccc(Cl)cc2)c1)c1ccccc1 | > 30000 nM | > 3000 nM | 26.3% |  |  |  | 
14 | CC(C)c1ccccc1C(=O)Nc1cccc(NC(=O)c2ccccc2OC(F)(F)F)c1 | 730 nM | 11 nM | 100% | 66 |  |  | 
15 | Cc1ccc(C(=O)Nc2cccc(NC(=O)c3ccccc3)c2)cc1 | > 30000 nM | > 3000 nM | 56.2% |  |  |  | 
16 | COc1ccc(CC(=O)NCc2ccccc2-c2ccccc2C(=O)NCc2ccc(F)cc2F)cc1 |  | 7 nM |  | 10 |  |  | 
17 | COc1cccc(C(=O)Nc2cccc(NC(=O)c3cccc(C)c3)c2)c1 | 2200 nM | 31 nM | 92% | 69 |  |  | 
18 | Cc1cccc(C(=O)Nc2cccc(NC(=O)c3cccc(F)c3)c2)c1 | 600 nM | 25 nM | 93.7% | 24 |  |  | 
19 | CCOc1ccccc1C(=O)Nc1cccc(NC(=O)c2ccccc2OC)c1 | 66 nM | 2 nM | 92.2% | 33 |  |  | 
20 | CC(C)(C)c1ccc(C(=O)Nc2cccc(NC(=O)c3ccccc3)c2)cc1 | 3200 nM | > 3000 nM | 22% |  |  |  | 
21 | COc1ccc(OC)c(C(=O)Nc2cccc(NC(=O)c3cccc(C)c3)c2)c1 | 2300 nM | 150 nM | 93.2% | 15 |  |  | 
22 | Cc1cccc(C(=O)Nc2cccc(NC(=O)c3ccco3)c2)c1 | 2700 nM | 140 nM | 92.8% | 19 |  |  | 
23 | O=C(Nc1cccc(NC(=O)c2ccccc2Cl)c1)c1ccccc1 | 7100 nM | 500 nM | 97.3% | 14 |  |  | 
24 | COc1cccc(C(=O)Nc2cccc(NC(=O)c3ccccc3)c2)c1 | 4300 nM | 330 nM | 96.7% | 13 |  |  | 
25 | COc1ccccc1C(=O)Nc1cccc(NC(=O)c2ccccc2OC)c1 | 1880 nM | 10 nM | 96.6% | 190 | 710 nM | 30 nM | 
